Experimental data published in US11697640B2, “Compounds for treating proliferative diseases” (Children's Medical Center Corporation, priority 2015, dated 2023).

Experiments:
[1] = Viability assay: effect of selected compounds on viability; type: cell-based; details: for viability at 1 µM: 1.0 μM compound; for viability at 10 µM: 10 μM compound
[2] = tested on: tubulin; test: Tubulin polymerization assay (Cytoskeleton Inc. kit, fluorescent reporter); type: biochemical; details: fluorescence-based polymerization kinetics
Procedure: Tubulin polymerization was measured using the tubulin polymerization assay kit from Cytoskeleton Inc., which measures tubulin polymerization kinetic via fluorescent enhancement to the incorporation of a fluorescent reporter into microtubules as polymerization takes place.

[3] = tested on: parental (DU145) prostate cancer cells; test: Apoptosis by PARP-1 and Caspase-3 blot after 48 h treatment; type: cell-based; details: 48 hours after treatment
Procedure: (§1) Cells were seeded in 6-well dishes at 50% confluence. Cells were treated with the compound OBD9 after 24 hours. 48 hours later, cells were lysed with lysis buffer and protein was collected and quantified with the BCA assay (Invitrogen). 20 micrograms of protein were loaded on 10% polyacrylamide gels. The gels were blotted onto nitrocellulose and stained with rabbit antibody to PARP-1 and Caspase-3 (both from Cell Signaling) and then visualized with goat, anti-rabbit HRP-conjugated antibody and HRP conjugated GAPDH.

[4] = tested on: high metastatic (DU145LN4) prostate cancer cells; test: as above; type: cell-based; details: 48 hours after treatment
Procedure: as §1

[5] = tested on: PC3M-prostate cancer cells; test: Imaging of microtubule stability by tubulin staining and confocal microscopy; type: cell-based, human; details: PC3M cells, 24, 48 and 72 hours
Procedure: Cells were seeded on glass coverslips. 24 hours later, cells were treated with compound OBD9. After the indicated times (24 hours, 48 hours, and 72 hours), cells were fixed with paraformaldehyde (4% in PBS), permeabilized Triton-X100 (0.02% in Phosphate buffered saline), then stained with mouse antibody to human tubulin (1:200 dilution) and then with 1:400 goat anti-mouse IgC (Invitrogen) and viewed via confocal microscopy at (63× objective).

Row | Compound | viability at 1 µM [1] | viability at 10 µM [1] | effect on tubulin polymerization [2] | apoptosis induction (PARP-1, Caspase-3) [3] | apoptosis induction (PARP-1, Caspase-3) [4] | effect on microtubule (tubulin) stability [5]
1 | COC(=O)Nc1nc2cc(C(=O)c3ccc(N(C)C4COC4)cc3)ccc2[nH]1 [Compound 9] | 34.9% | 34.3% | disrupts (inhibits) tubulin polymerization | induces apoptosis | induces apoptosis | interferes with microtubule (tubulin) stability
2 | COC(=O)Nc1nc2cc(Oc3cccc(N4CCN(C)CC4)n3)ccc2[nH]1 [Compound 12] | 94.5% | 35.2% | – | – | – | –
3 | COC(=O)Nc1nc2cc(Oc3cccc(N4CCN(C)CC4)c3)ccc2[nH]1 [Compound 13] | 80.9% | 49.1% | – | – | – | –
4 | CCCSc1ccc2[nH]c(NC(=O)OCCN(C)C)nc2c1 [Compound 15] | 97.4% | 35.3% | – | – | – | –
5 | CCCSc1ccc2[nH]c(NC(=O)OCCCN(C)C)nc2c1 [Compound 16] | 90.1% | 90.3% | – | – | – | –
6 | CN(C)CCCOC(=O)Nc1nc2cc(C(=O)c3ccc(F)cc3)ccc2[nH]1 [Compound 17] | 93.9% | 84.8% | – | – | – | –
